In ChEMBL document CHEMBL3886774, “Bicyclic substituted pyrimidine compounds” (2016) one finds IC50 data, which are given here for one compound.

The structures appear in SMILES notation.

Experiment [1] deals with Dual 3',5'-cyclic-AMP and -GMP phosphodiesterase 11A (Homo sapiens, UniProt Q9HCR9). The experiment in a line: Caliper Mobility-Shift Assay: To a 96-well plate, 20 μL of 10 μM FL-cGMP as the substrate was added; then 1 μL solution of the compound in DMSO or DMSO solution without compound was added; and then 29 μL of 0.28 ng/μL PDE-11 enzyme buffer (100 mM Hepes pH 7.5, 5 mM MgCl2, 0.002% Brij-35) was added. The maximum final concentration of the compound was 10 μM. The plate was incubated at 30° C. for 1 h, and 20 μL of 70 μM EDTA was then added to stop the reaction. 26 μL of solution of each well was transferred to a 384-well plate.
Chain of Dual 3',5'-cyclic-AMP and -GMP phosphodiesterase 11A (Q9HCR9 whole entry): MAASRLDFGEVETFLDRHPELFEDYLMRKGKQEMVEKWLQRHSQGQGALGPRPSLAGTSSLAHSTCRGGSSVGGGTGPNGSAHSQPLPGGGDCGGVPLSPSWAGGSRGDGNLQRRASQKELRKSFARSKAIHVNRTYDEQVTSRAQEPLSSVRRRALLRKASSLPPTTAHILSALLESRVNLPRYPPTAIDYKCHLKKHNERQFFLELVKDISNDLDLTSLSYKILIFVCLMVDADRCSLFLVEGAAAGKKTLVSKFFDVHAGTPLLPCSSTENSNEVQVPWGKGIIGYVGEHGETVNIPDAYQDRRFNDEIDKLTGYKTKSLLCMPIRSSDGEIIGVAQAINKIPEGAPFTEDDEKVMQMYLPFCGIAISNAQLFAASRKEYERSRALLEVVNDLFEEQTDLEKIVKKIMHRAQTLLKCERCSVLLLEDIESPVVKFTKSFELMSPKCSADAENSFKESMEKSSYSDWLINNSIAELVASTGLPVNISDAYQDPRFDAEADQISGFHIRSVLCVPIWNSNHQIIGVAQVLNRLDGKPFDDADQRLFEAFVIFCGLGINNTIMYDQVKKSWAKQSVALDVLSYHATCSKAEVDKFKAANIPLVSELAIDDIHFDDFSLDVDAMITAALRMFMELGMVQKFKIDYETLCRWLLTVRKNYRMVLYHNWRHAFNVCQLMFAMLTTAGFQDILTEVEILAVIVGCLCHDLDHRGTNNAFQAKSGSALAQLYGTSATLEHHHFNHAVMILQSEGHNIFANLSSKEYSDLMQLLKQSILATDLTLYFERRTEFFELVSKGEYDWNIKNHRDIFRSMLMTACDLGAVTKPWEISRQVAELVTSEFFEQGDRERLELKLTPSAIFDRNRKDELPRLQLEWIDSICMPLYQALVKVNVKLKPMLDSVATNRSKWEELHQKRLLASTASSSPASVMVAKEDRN

Experiment [2] addresses cGMP-specific 3',5'-cyclic phosphodiesterase (Homo sapiens, UniProt O76074). The experiment in a line: The maximum final concentration of the compound was 10 μM. The plate was incubated at 30° C. for 1 h, and 20 μL of 70 μM EDTA was then added to stop the reaction. 26 μL of solution of each well was transferred to a 384-well plate.

The IC50 is the point on the concentration scale where inhibition reaches its midpoint. Turning to `COc1ccc(CNc2nc(N3CC4CC4C3)ncc2C(=O)NCc2ccccn2)cc1Cl` (configuration not stated), the figures for the IC50 in experiment [1] and in experiment [2] were greater than 10 µM and 2.12 nM, respectively.
